Literature values in US20230416797A1, “MODULATING ANTIMICROBIAL PEPTIDE HALF-LIFE” (Syngulon SA., priority 2020, published 2023).

B1: Ent35-MccV: fusion bacteriocin: N-terminal glycine, Enterocin CRL35, a linker comprising three glycines, and a C-terminal Microcin V (protein)
chain: GKYYGNGVSCNKKGCSVDWGRAIGIIGNNSAANLATGGAAGWKSGGGASGRDIAMAIGTLSGQFVAGGIGAAAGGVAGGAIYDYASTHKPNPAMSPSGLGGTIKQKPEGIPSEAWNYAAGRLCNWSPNNLSDVCL
modifications: Hybrid bacteriocin Ent35-MccV
notes: fusion bacteriocin: N-terminal glycine, Enterocin CRL35, a linker comprising three glycines, and a C-terminal Microcin V

What was measured:
Candida species = details: against Candida species; Shekh and Roy (2012)
[1] = system: fungal microbial organism; details: from B. subtilis; Zuber et al. (1993), Shenin et al. (1995)
[2] = system: pathogenic Gram-positive and Gram-negative bacteria; details: against pathogenic Gram-positive and Gram-negative bacteria; Acuña et al. (2012)

| Molecule | antifungal activities [1] | other results |
| --- | --- | --- |
| WLPPAGLLGRCGRWFRPWLLWLQ SGAQY KWLGNLFGLGPK (WLPPAGLLGRCGRWFRPWLLWLQSGAQYKWLGNLFGLGPK; listed as Enterococcus faecalis) [SEQ ID NO: 1, an Enterococcus faecalis peptide] |  | neutralizing activity (Candida species): neutralizing activity |
| aurin B1 | antifungal activities |  |
| botrycidin AJ1316 | antifungal activities |  |
| B1 |  | antimicrobial activity [2]: antimicrobial activity |
